Where two headings read alike, the source gives them in different places.
Legend:
[1] = test system: H460 cells; settings: for IC50 in H460 cells: Table 1, value is the negative log10 of mol/L
[2] = test system: T29Kt1 cells; settings: Table 1, value is the negative log10 of mol/L
[3] = test system: H460 cells; test: cells; settings: Homo sapiens
[4] = test system: miapac; test: Cell viability, miapac pancreatic cancer cells; type: cell-based, human; settings: for IC50: Homo sapiens, Pancreatic cancer cell, read-out: IC50 (−LogM) (converted)
[5] = test system: Capanc-1; test: Cell viability, Capanc-1 pancreatic cancer cells; type: cell-based, human; settings: for IC50: Homo sapiens, Pancreatic cancer cell
[6] = test system: H1299 cells; test: Cell viability, H1299 lung cancer cells; type: cell-based, human; settings: for IC50: Homo sapiens, NCI-H1299, read-out: IC50 (−LogM), h1299, Lung (converted)
[7] = test system: T29Kt1 cells; test: cells; settings: Homo sapiens, T29Kt1, read-out: IC50 in T29k cells, Table 1
[8] = test system: A549 cells; test: Cell viability, A549 lung cancer cells; type: cell-based, human; settings: for IC50: Homo sapiens, A549, read-out: IC50 (−LogM), A549, Lung (converted)
[9] = test system: Heb46; test: Cell viability, Heb46 kidney cells; type: cell-based
[10] = test system: HKE3; test: Cell viability, HKE3 colon cancer cells; type: cell-based, human; settings: for IC50: Homo sapiens
[11] = test system: Heb44; test: Cell viability, Heb44 kidney cells; type: cell-based
[12] = test system: Hct116; test: Cell viability, Hct116 colon cancer cells; type: cell-based, human; settings: for IC50: Homo sapiens
[13] = test system: CT116P53; test: Cell viability, CT116P53 colon cancer cells; type: cell-based, human; settings: for IC50: Homo sapiens, read-out: IC50 (−LogM) (converted)
[14] = test system: DLD1; test: Cell viability, DLD1 colon cancer cells; type: cell-based, human; settings: for IC50: Homo sapiens
[15] = test system: A549CK8; test: Cell viability, A549CK8 lung cancer cells; type: cell-based, human; settings: for IC50: Homo sapiens, read-out: IC50 (−LogM) (converted)
[16] = test system: AsPC-1; test: Cell viability, AsPC-1 pancreatic cancer cells; type: cell-based, human; settings: for IC50: Homo sapiens
[17] = test system: H226B cells; test: Cell viability, H226B lung cancer cells; type: cell-based, human; settings: for IC50: Homo sapiens
[18] = test system: T29 cells; settings: Table 1; value is the negative log10 of mol/L
[19] = test system: H322 cells; test: Cell viability, H322 lung cancer cells; type: cell-based, human; settings: for IC50: Homo sapiens
[20] = test system: Sw620; test: Cell viability, Sw620 colon cancer cells; type: cell-based, human; settings: Sw620, Colon
[21] = NCI-H460, read-out: IC50 (−LogM), H460, Lung (converted)
[22] = NCI-H460, read-out: IC50 in H460 cells, Table 1
[23] = read-out: IC50 (−LogM), capanc1, Pancrease (converted)
[24] = read-out: IC50 (−LogM), HKE3, Colon, second HKE3 line (converted)
[25] = HCT-116, read-out: IC50 (−LogM), Hct116, Colon (converted)
[26] = DLD-1, read-out: IC50 (−LogM) (converted)
[27] = ASPC1, read-out: IC50 (−LogM), ASPC1, Pancrease (converted)
[28] = read-out: IC50 (−LogM), H226B, Lung, first H226B line (converted)
[29] = read-out: IC50 (−LogM), H226B, Lung, second H226B line (converted)
[30] = read-out: IC50 (−LogM), HKE3, Colon, first HKE3 line (converted)

For `O=Cc1cn(Cc2ccc(C(F)(F)F)cc2)c2ccccc12` [Oncrasin K64, 1H-Indole-3-carboxaldehyde, 1-[[4-(trifluoromethyl)phenyl]methyl]-(9CI)], the “IC50 in H460 cells” value [1] was 5.8.
`NC(=S)NN=Cc1cn(Cc2ccccc2)c2ccccc12` [Oncrasin K031, Hydrazinecarbothioamide, 2-[[1-(phenylmethyl)-1H-indol-3-yl]methylene]-(9CI)] was tested, and the “IC50 in T29k cells” value [2] was 5.
`O=Cc1cn(Cc2ccccc2F)c2ccccc12` [Oncrasin K051, 1-(2-fluorobenzyl)-1H-indole-3-carbaldehyde] showed an IC50 [3, 21] of 0.1 µM, an IC50 [3, 22] of 0.1 µM and an IC50 [4] of less than 31.6 µM. For the same compound, the IC50 [5, 23] was 31.6 µM, the IC50 [6] was 7.94 µM and the IC50 [7] was 0.316 µM. It also gave an IC50 [8] of 12.6 µM, an IC50 [9] of 10 µM and an IC50 [10, 24] of 10 µM. The IC50 [11] was 0.316 µM, the IC50 [12, 25] was 10 µM and the IC50 [13] was less than 31.6 µM. The IC50 [14, 26] was less than 31.6 µM, the IC50 [15] was 10 µM and the IC50 [16, 27] was 7.94 µM. The IC50 [17, 28] was 0.794 µM and the IC50 [17, 29] was 10 µM.
In the case of `Cc1ccc(Cn2cc(CO)c3ccccc32)cc1` [Oncrasin K67, 1H-Indole-3-methanol, 1-[(4-methylphenyl)methyl]-(9CI)], the “IC50 in T29 cells” value [18] is reported as 4.8, the “IC50 in T29k cells” value [2] is reported as 6.1 and the “IC50 in H460 cells” value [1] is reported as 7.
Compound `O=Cc1cn(Cc2cccc(C(F)(F)F)c2)c2ccccc12` [Oncrasin K62, 1-[3-(trifluoromethyl)benzyl]-1H-indole-3-carbaldehyde] has an IC50 [3, 21] of 0.0158 µM, an IC50 [3, 22] of 0.0138 µM and an IC50 [4] of less than 31.6 µM. The IC50 [5, 23] was 31.6 µM, the IC50 [6] was 10 µM and the IC50 [7] was 5.62 µM. For the same compound, the IC50 [8] was 10 µM, the IC50 ([19]; NCI-H322, read-out: IC50 (−LogM) (converted)) was 10 µM and the IC50 [9] was 10 µM. The IC50 [10, 30] was 3.16 µM, the IC50 [10, 24] was 5.01 µM and the IC50 [11] was 0.1 µM. It also gave an IC50 [12, 25] of 12.6 µM, an IC50 [13] of less than 31.6 µM and an IC50 [14, 26] of less than 31.6 µM. For the same compound, the IC50 [15] was 7.94 µM, the IC50 [16, 27] was 15.8 µM and the IC50 [17, 28] was 3.16 µM. For the same compound, the IC50 [17, 29] was 10 µM.
With “7H-Pyrrolo[2,3-d]pyrimidin-4-amine, N-[3-(1H-imidazol-1-yl)propyl]-5,6-diphenyl-7- [Oncrasin K017]” the “IC50 in T29 cells” value [18] was 4.8 and the “IC50 in T29k cells” value [2] was 5.
In the case of `O=C1C(=Cc2ccccn2)c2ccccc2N1Cc1ccccc1` [Oncrasin K046, 2-Indolinone, 1-benzyl-3-(2-pyridylmethylene)-(8CI)], the “IC50 in T29 cells” value [18] is reported as 5.3 and the “IC50 in T29k cells” value [2] is reported as 5.3.
For `OCc1cn(Cc2cccc(C(F)(F)F)c2)c2ccccc12` [Oncrasin K63, {1-[3-(trifluoromethyl)benzyl]-1H-indol-3-yl}methanol], the IC50 [3, 21] was 0.0398 µM, the IC50 [3, 22] was 0.0398 µM and the IC50 ([4]; miapac, Pancrease) was less than 31.6 µM. For the same compound, the IC50 ([5]; capanc1, Pancrease, read-out: IC50 (−LogM) (converted)) was 31.6 µM, the IC50 [7] was 0.562 µM and the IC50 ([19]; NCI-H322, H322, Lung, read-out: IC50 (−LogM) (converted)) was 31.6 µM. For the same compound, the IC50 [9] was 10 µM, the IC50 ([10]; HKE3, Colon, first HKE3 line, read-out: IC50 (−LogM) (converted)) was 1 µM and the IC50 ([10]; HKE3, Colon, second HKE3 line, read-out: IC50 (−LogM) (converted)) was 1.58 µM. For the same compound, the IC50 [11] was 0.251 µM, the IC50 ([12]; HCT-116, Hct116, Colon, read-out: IC50 (−LogM) (converted)) was 7.94 µM and the IC50 ([13]; CT116P53, Colon) was less than 31.6 µM. The IC50 ([14]; DLD-1, DLD1, Colon, read-out: IC50 (−LogM) (converted)) was less than 31.6 µM, the IC50 ([15]; A549CK8, Lung) was 10 µM and the IC50 ([16]; ASPC1, Pancrease, read-out: IC50 (−LogM) (converted)) was 10 µM. For the same compound, the IC50 ([17]; H226B, Lung, first H226B line, read-out: IC50 (−LogM) (converted)) was 0.316 µM and the IC50 ([17]; H226B, Lung, second H226B line, read-out: IC50 (−LogM) (converted)) was 1.58 µM.
`OCN1CC(Cc2ccc(C(F)(F)F)cc2)c2ccccc21` (centres unmarked) [Oncrasin K65] showed an IC50 [3, 22] of 1.26 µM and an IC50 [7] of 1.26 µM.
For `CC(=O)Oc1cn(Cc2ccccc2)c2ccccc12` [Oncrasin K047, Indoxyl, 1-benzyl-, acetate (6CI)], the “IC50 in H460 cells” value [1] was 5.
“4H-1,2,4-Triazol-4-amine, N-[[1-[(2,4-dichlorophenyl)methyl]-1H-indol-3-yl]methyle> [Oncrasin K002]” was tested, and the “IC50 in H460 cells” value [1] was 4.8.
With `O=C(CCCCCCC(=O)N/N=C/c1cn(Cc2ccc(Cl)cc2)c2ccccc12)CCCCC1SCC2NC(=O)NC21` (centres unmarked) [Oncrasin K130] the IC50 [3, 22] was 0.398 µM and the IC50 [7] was 2.51 µM.
For `OCc1cn(Cc2ccc(Cl)cc2Cl)c2ccccc12` [Oncrasin K74, 1H-Indole-3-methanol, 1-[(2,4-dichlorophenyl)methyl]-], the IC50 [3, 22] was 0.0794 µM and the IC50 [7] was 1.58 µM.
For `O=Cc1cn(Cc2ccccc2)c2ccccc12` [Oncrasin K014, 1-Benzylindole-3-carboxaldehyde], the IC50 [3, 21] was 0.0251 µM, the IC50 [3, 22] was 0.0251 µM and the IC50 [4] was less than 31.6 µM. For the same compound, the IC50 [5, 23] was 31.6 µM, the IC50 [7] was 5.01 µM and the IC50 [8] was 31.6 µM. It also gave an IC50 [9] of 3.16 µM, an IC50 [10, 30] of 1 µM and an IC50 [10, 24] of 5.01 µM. It also gave an IC50 [11] of 0.501 µM, an IC50 [12, 25] of 7.94 µM and an IC50 [13] of less than 31.6 µM. The IC50 [14, 26] was less than 31.6 µM, the IC50 [15] was 6.31 µM and the IC50 [16, 27] was 7.94 µM. It also gave an IC50 [17, 28] of 2 µM and an IC50 [17, 29] of 31.6 µM.
`O=Cc1cn(Cc2ccc([N+](=O)[O-])cc2)c2ccccc12` [Oncrasin K70, 1-(4-nitrobenzyl)-1H-indole-3-carbaldehyde] showed an IC50 [3, 22] of 0.501 µM and an IC50 [7] of 10 µM.
With `O=S(=O)(Nc1nccs1)c1ccc(N=Cc2cn(Cc3ccccc3)c3ccccc23)cc1` [Oncrasin K042, Sulfanilamide, N4-[(1-benzylindol-3-yl)methylene]-N1-2-thiazolyl-(8CI)] the “IC50 (−LogM)” value ([4]; miapac, Pancrease) was >4.5 −LogM, the “IC50 (−LogM)” value ([5]; capanc1, Pancrease) was 5.5 −LogM and the “IC50 (−LogM)” value ([6]; h1299, Lung) was >4.5 −LogM. The “IC50 (−LogM)” value [20] was >4.5 −LogM, the “IC50 (−LogM)” value ([8]; A549, Lung) was 5 −LogM and the “IC50 (−LogM)” value ([19]; H322, Lung) was >4.5 −LogM. The “IC50 in T29k cells” value [2] was 6, the “IC50 (−LogM)” value [9] was 5.4 −LogM and the “IC50 (−LogM)” value ([10]; HKE3, Colon, first HKE3 line) was 6 −LogM. For the same compound, the “IC50 (−LogM)” value ([10]; HKE3, Colon, second HKE3 line) was 5 −LogM, the “IC50 (−LogM)” value [11] was 6.7 −LogM and the “IC50 (−LogM)” value ([12]; Hct116, Colon) was 5 −LogM. The “IC50 (−LogM)” value ([13]; CT116P53, Colon) was >4.5 −LogM, the “IC50 (−LogM)” value ([14]; DLD1, Colon) was >4.5 −LogM and the “IC50 (−LogM)” value ([15]; A549CK8, Lung) was 5.3 −LogM. For the same compound, the “IC50 (−LogM)” value ([16]; ASPC1, Pancrease) was 5 −LogM, the “IC50 (−LogM)” value ([1]; H460, Lung) was 8 −LogM and the “IC50 in H460 cells” value [1] was 8. For the same compound, the “IC50 (−LogM)” value ([17]; H226B, Lung, first H226B line) was 5.5 −LogM and the “IC50 (−LogM)” value ([17]; H226B, Lung, second H226B line) was 5.3 −LogM.
With `O=Cc1cn(Cc2ccc(Cl)cc2Cl)c2ccccc12` [Oncrasin K050, 1-(2,4-dichlorobenzyl)-1H-indole-3-carbaldehyde] the “IC50 in T29k cells” value ([2]; listed as K50) was 5, the “IC50 in T29k cells” value [2] was 5.8 and the “IC50 in H460 cells” value ([1]; listed as K50) was 6.3. For the same compound, the “IC50 in H460 cells” value [1] was 7.
Work on `CC(=O)c1cn(Cc2cccc(Cl)c2)c2ccccc12` [Oncrasin K058] yielded an IC50 [7] of 31.6 µM.
`OCc1cn(Cc2cccc(Cl)c2)c2ccccc12` [Oncrasin K72, 1H-Indole-3-methanol, 1-[(3-chlorophenyl)methyl]-(9CI)] was tested, and the “IC50 in T29k cells” value [2] was 5.75 and the “IC50 in H460 cells” value [1] was 5.9.

Source: patent US8883841B2, “Oncogenic ras-specific cytotoxic compound and methods of use thereof” (The Board of Regents of the University of Texas System, priority 2005, dated 2014)
